The values below are quoted from earlier work in US20220313139A1, “APPARATUSES AND METHODS FOR IDENTIFICATION AND TREATMENT OF PATIENTS RESPONSIVE TO ANTIPSYCHOTIC AGENT THERAPY” (priority 2019, published 2022).

Series [1] relates to patients. To be noted: early phase II monotherapy trial.
Series [2] concerns patients. To be noted: clinical studies, halted.
For series [3] the following is noted: in humans.

In the case of `CSCC[C@H](N)C(=O)N[C@@]1(C(=O)O)CS(=O)(=O)[C@H]2[C@H](C(=O)O)[C@H]21` [poma, Pomaglumetad methionil], in the series on patients [1], the “dosage shown to be efficacious” value was 40 mg BID. Also, the “efficacy versus placebo as determined with PANSS total scores” value with patients [2] is “not significantly more efficacious than the placebo”.

Consider `N[C@@]1(C(=O)O)CS(=O)(=O)[C@H]2[C@H](C(=O)O)[C@H]21` [pomaglumetad], for which the “oral absorption and bioavailability” value in series [3] was “low oral absorption and bioavailability”.
